In experiment [1] the test system is HEK293. As to the kind of experiment: cells. Conditions: Homo sapiens.
Another experiment deals with Phospholipase A2 (Homo sapiens, UniProt P04054). Type of experiment: functional.
The target of another experiment is T1, Cysteine protease ATG4B (Homo sapiens, UniProt Q9Y4P1).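 Note: Fluorescence-based dose-response confirmation assay measuring inhibition of ATG4B activity.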
T1 sequence (Q9Y4P1 whole entry): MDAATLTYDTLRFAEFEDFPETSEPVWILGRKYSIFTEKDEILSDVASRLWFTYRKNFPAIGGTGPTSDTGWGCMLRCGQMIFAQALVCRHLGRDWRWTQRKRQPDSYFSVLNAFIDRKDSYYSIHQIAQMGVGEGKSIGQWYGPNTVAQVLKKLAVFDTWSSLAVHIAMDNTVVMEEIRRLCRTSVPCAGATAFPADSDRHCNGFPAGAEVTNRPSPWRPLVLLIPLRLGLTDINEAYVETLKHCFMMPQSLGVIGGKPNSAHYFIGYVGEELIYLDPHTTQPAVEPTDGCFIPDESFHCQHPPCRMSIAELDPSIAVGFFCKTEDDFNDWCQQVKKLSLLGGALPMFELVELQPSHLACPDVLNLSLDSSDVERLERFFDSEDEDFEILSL
Type of experiment: functional.

For experiment [2], the system named is HEK293. The experiment can be described thus: cells. The conditions noted are these: Homo sapiens. This is another data set of the same source.
The target in experiment [3] is T2, Replicative DNA helicase DnaB (Mycobacterium tuberculosis, UniProt P9WMR3).
T2 sequence (P9WMR3 whole entry): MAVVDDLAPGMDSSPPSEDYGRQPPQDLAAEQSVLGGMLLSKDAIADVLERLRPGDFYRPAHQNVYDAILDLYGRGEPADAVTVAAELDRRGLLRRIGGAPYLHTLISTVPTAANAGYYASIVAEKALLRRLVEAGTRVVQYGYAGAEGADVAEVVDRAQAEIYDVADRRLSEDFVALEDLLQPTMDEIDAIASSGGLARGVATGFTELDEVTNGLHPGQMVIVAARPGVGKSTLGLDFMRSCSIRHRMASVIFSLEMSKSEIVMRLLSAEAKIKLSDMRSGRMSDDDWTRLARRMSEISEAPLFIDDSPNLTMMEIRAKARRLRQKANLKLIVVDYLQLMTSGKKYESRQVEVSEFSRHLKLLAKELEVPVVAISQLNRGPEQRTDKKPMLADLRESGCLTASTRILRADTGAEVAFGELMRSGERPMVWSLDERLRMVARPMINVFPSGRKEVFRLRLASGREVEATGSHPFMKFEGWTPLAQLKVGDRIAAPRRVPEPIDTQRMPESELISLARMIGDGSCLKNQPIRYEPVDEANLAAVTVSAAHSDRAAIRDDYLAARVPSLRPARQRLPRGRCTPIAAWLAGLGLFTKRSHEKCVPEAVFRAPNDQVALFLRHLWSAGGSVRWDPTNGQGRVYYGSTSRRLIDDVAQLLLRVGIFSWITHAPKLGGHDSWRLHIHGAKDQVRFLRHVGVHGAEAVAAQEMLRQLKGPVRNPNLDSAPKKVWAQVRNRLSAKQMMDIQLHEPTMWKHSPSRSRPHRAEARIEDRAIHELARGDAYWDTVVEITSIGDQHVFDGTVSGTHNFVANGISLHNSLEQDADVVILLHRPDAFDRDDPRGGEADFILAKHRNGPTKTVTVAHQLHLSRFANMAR
As to the kind of experiment: DnaB intein splicing inhibitors, dose response, biochemical, cell-free fluorescence (AID 449749). Type of experiment: functional.

Experiment [4] in a line: Trypanosoma cruzi growth suppression in host cells – NIH3T3 host cells, beta-gal luminescence, confirmation (AID 2044).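 Note: intracellular parasites grown in NIH/3T3 mouse fibroblasts as host cells; luminescent beta-galactosidase reporter signal from transgenic T. cruzi replicating inside host cells; inhibitors lower the luminescence signal.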 Type of experiment: functional, cell-based.
Experiment [5] can be described thus: Intein inhibitors as potential Tuberculosis drugs, a cytotoxicity screen. [Related pubchem assays (depositor defined):AID2221, AID2223, AID434968, AID435010, AID449749, AID449750, AID489010]. The class given is functional.
A short description of experiment [6]: HEK-293T cell viability reduction – luminescence, B-cell screen hits, cytotoxicity control for BCR NF-kB inhibitor project, dose response (AID 489021).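 Note: HEK-293T cells carrying an NF-kB luciferase reporter; cells exposed to compound for about 14 hours before viability readout.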 The class given is functional, cell-based.
A short description of experiment [7]: luciferase reporter signal suppression in cells – H4 neuroglioma cells, luminescence, dose response (AID 1990). The class given is functional, cell-based. On the technique in general: Reporter assays use an easily measured gene product as a stand-in for the process of interest.
The nature of experiment [8]: NIH3T3 cell viability loss – ATP luminescence, mouse fibroblasts, counter-screen, dose response (AID 2010).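 Note: cells exposed to compound for about 90 hours before reading.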 Type of experiment: functional, cell-based. In general terms: A counterscreen serves to expose hits that act by an unwanted route or on another target.
The nature of experiment [9]: Luminescence Cell-Based Dose Response HTS to Identify Inhibitors of 5'UTR Stem-Loop Driven Prion Protein mRNA Translation in H4 Neuroglioblastoma Cells. [Related pubchem assays: 1827 (Project Summary), 1813 (Primary HTS)]. The class given is functional.
Experiment [10] in a line: alpha-synuclein stem-loop luciferase translation blockers – H4 neuroglioma cells, luminescence, confirmation (AID 1988). Type of experiment: functional, cell-based.
Experiment [11] in a line: NIH-3T3 fibroblast cytotoxicity, dose response, cytotoxicity control, cell-based, fluorescence, Alamar Blue, secondary assay (AID 2327).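 Note: NIH-3T3 mouse fibroblasts cultured with fluconazole at 8 µg/mL.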 Type of experiment: functional. For orientation: The colour change of resazurin is a common sign of viable cells or microbes.
In the next experiment the target is T3, Protein RecA (Mycobacterium tuberculosis, UniProt P9WHJ3).
T3 sequence (P9WHJ3 whole entry): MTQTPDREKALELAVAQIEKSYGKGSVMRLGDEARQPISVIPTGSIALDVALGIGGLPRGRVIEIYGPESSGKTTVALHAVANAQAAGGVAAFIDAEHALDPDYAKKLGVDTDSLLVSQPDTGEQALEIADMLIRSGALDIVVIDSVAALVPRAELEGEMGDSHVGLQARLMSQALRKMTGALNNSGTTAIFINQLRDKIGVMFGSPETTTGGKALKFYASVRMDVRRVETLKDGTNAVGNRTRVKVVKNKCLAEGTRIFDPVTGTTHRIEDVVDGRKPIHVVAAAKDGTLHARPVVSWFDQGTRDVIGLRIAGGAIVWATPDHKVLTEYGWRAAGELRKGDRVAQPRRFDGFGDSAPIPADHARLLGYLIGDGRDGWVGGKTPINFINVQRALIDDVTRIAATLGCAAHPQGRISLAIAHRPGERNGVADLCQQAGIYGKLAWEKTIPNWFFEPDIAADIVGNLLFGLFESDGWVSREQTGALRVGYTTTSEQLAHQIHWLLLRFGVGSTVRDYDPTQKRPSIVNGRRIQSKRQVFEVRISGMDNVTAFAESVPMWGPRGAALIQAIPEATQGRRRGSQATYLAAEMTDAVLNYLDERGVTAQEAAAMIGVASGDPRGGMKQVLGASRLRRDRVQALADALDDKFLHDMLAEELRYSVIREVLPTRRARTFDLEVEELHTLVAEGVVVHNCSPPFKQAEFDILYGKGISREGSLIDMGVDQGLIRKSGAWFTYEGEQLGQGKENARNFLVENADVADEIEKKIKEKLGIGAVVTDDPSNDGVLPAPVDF
The experiment can be described thus: Fluorescence Cell-Free Homogeneous Dose Retest to Identify Inhibitors of RecA-Intein Splicing Activity. [Related pubchem assays (depositor defined):AID2097, AID2223, AID489010, AID492950]. The class given is functional.

The target in experiment [12] is T4, Heat shock factor protein 1 (Mus musculus, UniProt P38532).
T4 sequence (P38532 whole entry): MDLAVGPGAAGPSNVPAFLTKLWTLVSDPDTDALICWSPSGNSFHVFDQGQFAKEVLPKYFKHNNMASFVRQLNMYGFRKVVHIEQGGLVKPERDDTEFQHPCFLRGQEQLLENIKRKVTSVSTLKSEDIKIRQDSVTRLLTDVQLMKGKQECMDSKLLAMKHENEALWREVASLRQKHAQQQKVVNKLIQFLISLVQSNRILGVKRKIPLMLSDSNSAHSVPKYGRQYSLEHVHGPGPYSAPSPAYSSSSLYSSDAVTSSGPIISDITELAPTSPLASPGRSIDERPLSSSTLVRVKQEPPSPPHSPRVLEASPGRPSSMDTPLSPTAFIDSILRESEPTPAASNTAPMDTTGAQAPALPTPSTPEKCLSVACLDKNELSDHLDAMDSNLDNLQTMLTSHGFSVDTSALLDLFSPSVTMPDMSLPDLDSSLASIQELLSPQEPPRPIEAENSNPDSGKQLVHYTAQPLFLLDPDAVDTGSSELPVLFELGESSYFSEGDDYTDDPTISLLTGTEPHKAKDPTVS
As to the kind of experiment: decrease of HSF1-responsive luciferase luminescence – cell-based, NIH3T3, dose retest, confirmation (AID 2382).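 Note: NIH3T3 fibroblasts with HSF1-driven luciferase reporter stressed by proteasome inhibitor MG132; luminescence from HSF1-driven luciferase expression after 8 hours of MG132 stress.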 Type of experiment: functional.

Experiment [13] concerns HEK293. The experiment can be described thus: EBV LMP1 TES2 canonical NF-kB signalling blockers – cell-based, HEK293, luciferase, cherry-pick, dose response (AID 588343). The class given is functional. The conditions noted are these: Homo sapiens.
Experiment [14] addresses UDP-galactopyranose mutase (Mycobacterium tuberculosis, UniProt P9WIQ1). As to the kind of experiment: Inhibitors of Mycobacterium tuberculosis UDP-galactopyranose mutase (UGM) enzyme Measured in Biochemical System Using Plate Reader - 2105-02_Inhibitor_Dose_CherryPick_Activity. [Related pubchem assays (depositor defined):AID504439].
The nature of experiment [15]: DRD fibroblast viability loss – cell-based, non-viral oncogenic, luminescence, dose response (AID 1934). The class given is functional. Conditions: Homo sapiens.
Experiment [16] relates to BJ. The experiment can be described thus: cells. Conditions: Homo sapiens. The class given is functional, cell-based.
The subject of experiment [17] is BJ. The experiment can be described thus: BJ-TERT-LT-ST fibroblast viability loss – cell-based, RAS-independent, luminescence, dose response (AID 1935).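 Note: BJ fibroblasts immortalized with TERT plus LT and ST oncogenes.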 The class given is functional. The conditions noted are these: Homo sapiens.
For experiment [18], the system named is BJ. The experiment can be described thus: BJ-TERT fibroblast viability loss – cell-based, RAS-independent, luminescence, dose response (AID 1933). The class given is functional. Conditions: Homo sapiens.
A short description of experiment [19]: HEK-293T viability loss after treatment – luminescence, T-cell screen hits, cytotoxicity control for TCR NF-kB inhibitor project, dose response (AID 489026).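 Note: cells exposed to compound about 14 hours before the viability readout.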 Type of experiment: functional, cell-based.

Molecules are shown by their SMILES. Calls of active or inactive are those of the source. Cut-off read from the data, not from the text of the source, for most assays here: actives have a measured EC50 and inactives only a lower limit.
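Throughout, for CC50: cells exposed to compound for 72 hours before luminescence readout.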

Chain of Phospholipase A2 (P04054 whole entry): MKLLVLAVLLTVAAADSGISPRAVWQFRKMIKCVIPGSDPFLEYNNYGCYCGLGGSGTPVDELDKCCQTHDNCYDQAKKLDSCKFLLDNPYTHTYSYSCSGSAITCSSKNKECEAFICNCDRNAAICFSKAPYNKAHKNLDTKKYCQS
Chain of UDP-galactopyranose mutase (P9WIQ1 whole entry): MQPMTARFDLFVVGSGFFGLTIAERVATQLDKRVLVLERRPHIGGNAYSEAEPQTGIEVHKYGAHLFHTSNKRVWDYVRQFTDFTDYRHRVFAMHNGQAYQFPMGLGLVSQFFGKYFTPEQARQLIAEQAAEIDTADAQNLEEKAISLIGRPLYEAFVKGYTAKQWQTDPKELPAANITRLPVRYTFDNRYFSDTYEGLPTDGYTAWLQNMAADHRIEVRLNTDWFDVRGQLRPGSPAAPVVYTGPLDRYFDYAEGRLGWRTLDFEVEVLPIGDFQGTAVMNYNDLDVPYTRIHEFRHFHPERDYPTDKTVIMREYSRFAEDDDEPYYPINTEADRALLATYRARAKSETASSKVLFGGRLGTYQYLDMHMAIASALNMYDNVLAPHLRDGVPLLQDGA

Turning to `CCn1c(SCc2ccccc2Cl)nc2nc3c(cc2c1=O)CCCC3`, the EC50 in the experiment with HEK293 [1] and in the experiment on HEK293 [2] was > 59.6 µM (inactive) in each case. The IC50 on Phospholipase A2 is 4.98 µM (active); on Cysteine protease ATG4B, 12.5 µM (active).
Turning to `O=C(CCl)N(c1ccc(Cl)cc1)c1c[nH]c2ccccc12`, the AC50 in experiment [3] is 2.46 µM (active); with HEK293 [13], 12.5 µM (active). For the same compound, the half-maximal effective concentration (EC50) in experiment [4] is 0.412 µM (active); in experiment [7], 13.2 µM (active); in [8], < 6 µM (inconclusive); in experiment [9], 15.5 µM (active); in [10] it was 8.46 µM (active); in experiment [11] it was 4.07 µM (inconclusive). Also, the results for the 50% effective concentration (EC50) (on Protein RecA; in [12]) were 0.195 µM (active) and 2.72 µM (active), respectively. In [5], the cytotoxic concentration (CC50) is 0.86 µM (active). The IC50 in experiment [6] was 15 µM (active).
As to `Cc1nn(C)cc1N1C(=O)c2cccc3c(N)ccc(c23)C1=O`, the AC50 in [14] is 1.91 µM (active).
For `O=C(Cc1ccc(-c2ccccc2)cc1)NCc1ccccc1`, the EC50 in [15] is 0.489 µM (active); in the experiment with BJ [16], 13.6 µM (inconclusive); with BJ [17] it was 0.279 µM (inconclusive); in the experiment on BJ [18], 0.385 µM (active). Moreover, the IC50 in experiment [19] was > 80 µM (inactive).

As a reminder, the EC50 is the concentration needed to bring the measured effect to its halfway point. For orientation: IC50 means the concentration that inhibits the measured activity by half. By AC50 is commonly meant the concentration at which the activity in the assay is half-maximal. As usually defined, the CC50 is the concentration that lowers cell viability or growth by half.
